What was measured:
[1] = biological target: MAP kinase-interacting serine/threonine-protein kinase 1 (Homo sapiens) (UniProt Q9BUB5); conditions: Compound concentration 1000.0 nM
[2] = biological target: Serine/threonine-protein kinase RIO2 (Homo sapiens) (UniProt Q9BVS4); conditions: Compound concentration 1000.0 nM
[3] = biological target: Mitogen-activated protein kinase kinase kinase 4 (Homo sapiens) (UniProt Q9Y6R4); conditions: Compound concentration 1000.0 nM
[4] = tested on: Receptor-type tyrosine-protein kinase FLT3 (Homo sapiens), P36888 [UNDEFINED MUTATION]; conditions: Compound concentration 1000.0 nM
[5] = biological target: Receptor tyrosine-protein kinase erbB-3 (Homo sapiens) (UniProt P21860); conditions: Compound concentration 1000.0 nM
[6] = biological target: Dual specificity mitogen-activated protein kinase kinase 2 (Homo sapiens) (UniProt P36507); conditions: Compound concentration 1000.0 nM
[7] = biological target: Serine/threonine-protein kinase 35 (Homo sapiens) (UniProt Q8TDR2); conditions: Compound concentration 1000.0 nM
[8] = biological target: Mitogen-activated protein kinase kinase kinase 6 (Homo sapiens) (UniProt O95382); conditions: Compound concentration 1000.0 nM
[9] = biological target: Serine/threonine-protein kinase pim-3 (Homo sapiens) (UniProt Q86V86); conditions: Compound concentration 1000.0 nM
[10] = biological target: Interleukin-1 receptor-associated kinase 1 (Homo sapiens) (UniProt P51617); conditions: Compound concentration 1000.0 nM
[11] = tested on: ALK tyrosine kinase receptor (Homo sapiens), Q9UM73 [L1196M]; conditions: Compound concentration 1000.0 nM
[12] = biological target: Tyrosine-protein kinase Yes (Homo sapiens) (UniProt P07947); conditions: Compound concentration 1000.0 nM
Chain of Tyrosine-protein kinase Yes (Homo sapiens) (P07947 2-543 limits assumed): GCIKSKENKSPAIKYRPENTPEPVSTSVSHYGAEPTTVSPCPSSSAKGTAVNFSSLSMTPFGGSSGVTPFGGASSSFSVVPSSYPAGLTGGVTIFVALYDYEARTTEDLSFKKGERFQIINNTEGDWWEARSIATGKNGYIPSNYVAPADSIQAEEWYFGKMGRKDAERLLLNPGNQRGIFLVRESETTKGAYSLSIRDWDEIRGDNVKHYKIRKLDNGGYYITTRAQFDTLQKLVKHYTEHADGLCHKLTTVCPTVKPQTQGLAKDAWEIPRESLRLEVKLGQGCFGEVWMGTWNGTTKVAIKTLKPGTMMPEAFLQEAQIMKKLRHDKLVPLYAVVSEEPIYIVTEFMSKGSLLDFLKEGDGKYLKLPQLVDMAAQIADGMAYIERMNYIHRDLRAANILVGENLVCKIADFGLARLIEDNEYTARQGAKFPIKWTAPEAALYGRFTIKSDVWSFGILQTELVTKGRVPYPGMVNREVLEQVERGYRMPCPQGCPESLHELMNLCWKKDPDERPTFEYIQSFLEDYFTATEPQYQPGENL

[13] = biological target: Phosphatidylinositol 4-phosphate 5-kinase type-1 gamma (Homo sapiens) (UniProt O60331); conditions: Compound concentration 1000.0 nM
[14] = biological target: Serine/threonine-protein kinase NIM1 (Homo sapiens) (UniProt Q8IY84); conditions: Compound concentration 1000.0 nM
Chain of Serine/threonine-protein kinase NIM1 (Homo sapiens) (Q8IY84 whole entry): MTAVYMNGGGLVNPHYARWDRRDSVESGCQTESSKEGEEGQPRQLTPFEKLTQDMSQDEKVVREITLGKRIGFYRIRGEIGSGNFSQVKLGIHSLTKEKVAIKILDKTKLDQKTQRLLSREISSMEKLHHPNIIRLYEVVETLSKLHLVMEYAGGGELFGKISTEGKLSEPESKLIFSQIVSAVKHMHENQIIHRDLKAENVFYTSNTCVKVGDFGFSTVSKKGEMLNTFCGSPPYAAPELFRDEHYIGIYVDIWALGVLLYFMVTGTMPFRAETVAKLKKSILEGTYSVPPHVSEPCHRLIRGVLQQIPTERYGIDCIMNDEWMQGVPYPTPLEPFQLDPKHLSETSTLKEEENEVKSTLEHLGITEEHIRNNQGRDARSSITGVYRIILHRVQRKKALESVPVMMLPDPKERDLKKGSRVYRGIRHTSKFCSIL

[15] = tested on: Epidermal growth factor receptor (Homo sapiens), P00533 [UNDEFINED MUTATION]; conditions: Compound concentration 1000.0 nM
[16] = biological target: Cyclin-dependent kinase 16 (Homo sapiens) (UniProt Q00536); conditions: Compound concentration 1000.0 nM
Chain of Cyclin-dependent kinase 16 (Homo sapiens) (Q00536 whole entry): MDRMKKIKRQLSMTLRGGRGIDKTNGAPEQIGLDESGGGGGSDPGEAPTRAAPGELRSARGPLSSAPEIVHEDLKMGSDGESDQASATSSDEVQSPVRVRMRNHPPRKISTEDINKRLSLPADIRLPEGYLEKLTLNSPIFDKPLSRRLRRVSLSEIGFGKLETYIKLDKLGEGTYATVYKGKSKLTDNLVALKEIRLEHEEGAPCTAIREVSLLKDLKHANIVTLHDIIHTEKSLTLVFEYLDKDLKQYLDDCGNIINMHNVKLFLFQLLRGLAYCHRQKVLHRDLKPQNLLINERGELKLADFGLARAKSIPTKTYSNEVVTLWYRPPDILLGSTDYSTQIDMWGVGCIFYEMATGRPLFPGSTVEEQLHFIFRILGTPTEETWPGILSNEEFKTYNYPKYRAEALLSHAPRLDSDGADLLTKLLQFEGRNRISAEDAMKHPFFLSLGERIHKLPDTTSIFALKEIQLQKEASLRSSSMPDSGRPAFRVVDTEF

[17] = tested on: Receptor-type tyrosine-protein kinase FLT3 (Homo sapiens), P36888 [D835V]; conditions: Compound concentration 1000.0 nM
[18] = biological target: Serine/threonine-protein kinase Sgk2 (Homo sapiens) (UniProt Q9HBY8); conditions: Compound concentration 1000.0 nM
[19] = biological target: 3-phosphoinositide-dependent protein kinase 1 (Homo sapiens) (UniProt O15530); conditions: Compound concentration 1000.0 nM
[20] = biological target: Ribosomal protein S6 kinase alpha-5 (Homo sapiens) (UniProt O75582); conditions: Compound concentration 1000.0 nM
[21] = biological target: Non-receptor tyrosine-protein kinase TNK1 (Homo sapiens) (UniProt Q13470); conditions: Compound concentration 1000.0 nM
[22] = biological target: Macrophage colony-stimulating factor 1 receptor (Homo sapiens) (UniProt P07333); conditions: Compound concentration 1000.0 nM
Chain of Macrophage colony-stimulating factor 1 receptor (Homo sapiens) (P07333 whole entry): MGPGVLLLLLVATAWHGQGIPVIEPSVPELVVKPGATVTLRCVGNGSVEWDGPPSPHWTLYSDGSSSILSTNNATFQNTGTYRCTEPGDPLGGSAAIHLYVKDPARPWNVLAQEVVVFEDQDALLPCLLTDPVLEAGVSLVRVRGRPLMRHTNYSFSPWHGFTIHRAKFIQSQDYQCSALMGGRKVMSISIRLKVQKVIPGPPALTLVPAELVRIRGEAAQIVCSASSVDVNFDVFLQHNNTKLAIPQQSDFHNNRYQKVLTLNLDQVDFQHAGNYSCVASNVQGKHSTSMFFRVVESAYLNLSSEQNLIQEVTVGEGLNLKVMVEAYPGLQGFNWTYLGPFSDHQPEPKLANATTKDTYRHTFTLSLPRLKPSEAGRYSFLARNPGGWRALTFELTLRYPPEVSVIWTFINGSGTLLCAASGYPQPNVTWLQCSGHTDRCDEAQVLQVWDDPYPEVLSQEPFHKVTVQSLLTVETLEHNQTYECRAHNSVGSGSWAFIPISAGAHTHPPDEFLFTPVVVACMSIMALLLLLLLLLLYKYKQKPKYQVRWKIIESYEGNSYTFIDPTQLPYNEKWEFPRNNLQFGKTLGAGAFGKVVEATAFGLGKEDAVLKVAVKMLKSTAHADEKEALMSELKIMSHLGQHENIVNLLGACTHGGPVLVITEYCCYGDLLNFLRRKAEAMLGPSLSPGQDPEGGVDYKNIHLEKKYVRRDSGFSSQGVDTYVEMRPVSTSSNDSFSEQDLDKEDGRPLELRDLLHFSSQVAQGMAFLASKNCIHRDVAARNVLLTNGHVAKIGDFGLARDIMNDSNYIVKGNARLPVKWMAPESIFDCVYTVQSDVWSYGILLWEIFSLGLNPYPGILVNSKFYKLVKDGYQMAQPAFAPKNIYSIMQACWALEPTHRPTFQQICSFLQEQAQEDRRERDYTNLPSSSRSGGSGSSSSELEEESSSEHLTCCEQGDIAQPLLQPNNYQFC

[23] = biological target: Transient receptor potential cation channel subfamily M member 6 (Homo sapiens) (UniProt Q9BX84); conditions: Compound concentration 1000.0 nM
[24] = biological target: Tyrosine-protein kinase Fyn (Homo sapiens) (UniProt P06241); conditions: Compound concentration 1000.0 nM
[25] = biological target: Myosin light chain kinase (Homo sapiens) (UniProt Q32MK0); conditions: Compound concentration 1000.0 nM
[26] = biological target: Serine/threonine-protein kinase 26 (Homo sapiens) (UniProt Q9P289); conditions: Compound concentration 1000.0 nM
[27] = biological target: Peripheral plasma membrane protein CASK (Homo sapiens) (UniProt O14936); conditions: Compound concentration 1000.0 nM
[28] = biological target: Rho-associated protein kinase 2 (Homo sapiens) (UniProt O75116); conditions: Compound concentration 1000.0 nM
[29] = tested on: Mast/stem cell growth factor receptor Kit (Homo sapiens), P10721 [A829P]; conditions: Compound concentration 1000.0 nM
Chain of Mast/stem cell growth factor receptor Kit (Homo sapiens), P10721 [A829P] (P10721 whole entry A829P): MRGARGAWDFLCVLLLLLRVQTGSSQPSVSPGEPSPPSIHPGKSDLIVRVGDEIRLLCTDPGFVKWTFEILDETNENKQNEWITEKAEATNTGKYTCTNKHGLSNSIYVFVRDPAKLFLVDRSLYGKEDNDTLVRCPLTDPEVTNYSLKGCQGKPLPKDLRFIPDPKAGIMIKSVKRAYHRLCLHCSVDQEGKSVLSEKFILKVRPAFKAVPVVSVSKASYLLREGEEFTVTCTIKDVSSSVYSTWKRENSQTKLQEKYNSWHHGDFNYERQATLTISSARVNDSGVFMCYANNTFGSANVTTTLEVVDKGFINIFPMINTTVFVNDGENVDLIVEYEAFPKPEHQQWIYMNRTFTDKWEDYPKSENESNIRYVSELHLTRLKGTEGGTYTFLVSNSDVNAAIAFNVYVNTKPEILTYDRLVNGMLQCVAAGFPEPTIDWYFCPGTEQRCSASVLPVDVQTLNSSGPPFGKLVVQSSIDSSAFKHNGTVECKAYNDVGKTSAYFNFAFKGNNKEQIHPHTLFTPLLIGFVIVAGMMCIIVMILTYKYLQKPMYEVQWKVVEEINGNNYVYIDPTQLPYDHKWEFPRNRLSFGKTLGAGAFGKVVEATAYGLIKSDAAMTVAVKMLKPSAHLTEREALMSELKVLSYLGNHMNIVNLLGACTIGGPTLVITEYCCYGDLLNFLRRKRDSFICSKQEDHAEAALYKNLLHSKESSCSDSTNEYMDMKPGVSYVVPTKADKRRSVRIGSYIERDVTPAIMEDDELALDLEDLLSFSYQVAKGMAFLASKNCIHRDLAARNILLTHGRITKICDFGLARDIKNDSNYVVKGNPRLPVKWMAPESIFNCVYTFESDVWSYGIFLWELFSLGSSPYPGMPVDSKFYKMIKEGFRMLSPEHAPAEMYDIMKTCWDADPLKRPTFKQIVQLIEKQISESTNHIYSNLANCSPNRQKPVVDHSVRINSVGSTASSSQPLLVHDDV

[30] = biological target: Wee1-like protein kinase (Homo sapiens) (UniProt P30291); conditions: Compound concentration 1000.0 nM
[31] = tested on: Epidermal growth factor receptor (Homo sapiens), P00533 [G719C]; conditions: Compound concentration 1000.0 nM
[32] = biological target: Homeodomain-interacting protein kinase 3 (Homo sapiens) (UniProt Q9H422); conditions: Compound concentration 1000.0 nM
[33] = biological target: Ephrin type-A receptor 7 (Homo sapiens) (UniProt Q15375); conditions: Compound concentration 1000.0 nM
[34] = biological target: Serine/threonine-protein kinase 33 (Homo sapiens) (UniProt Q9BYT3); conditions: Compound concentration 1000.0 nM
[35] = biological target: D(3) dopamine receptor (Homo sapiens) (UniProt P35462); conditions: Compound concentration 10.0 uM
[36] = biological target: Myosin-IIIa (Homo sapiens) (UniProt Q8NEV4); conditions: Compound concentration 1000.0 nM
[37] = biological target: Alpha-2C adrenergic receptor (Homo sapiens) (UniProt P18825); conditions: Compound concentration 10.0 uM
[38] = biological target: Serine/threonine-protein kinase 36 (Homo sapiens) (UniProt Q9NRP7); conditions: Compound concentration 1000.0 nM
[39] = biological target: Histamine H1 receptor (Homo sapiens) (UniProt P35367); conditions: Compound concentration 10.0 uM
[40] = biological target: Serine/threonine-protein kinase D1 (Homo sapiens) (UniProt Q15139); conditions: Compound concentration 1000.0 nM
[41] = biological target: Glycogen synthase kinase-3 alpha (Homo sapiens) (UniProt P49840); conditions: Compound concentration 1000.0 nM
[42] = biological target: cAMP-dependent protein kinase catalytic subunit alpha (Homo sapiens) (UniProt P17612); conditions: Compound concentration 1000.0 nM
[43] = tested on: Tyrosine-protein kinase ABL1 (Homo sapiens), P00519 [F317I]; conditions: Compound concentration 1000.0 nM
[44] = biological target: Ephrin type-B receptor 1 (Homo sapiens) (UniProt P54762); conditions: Compound concentration 1000.0 nM
Chain of Ephrin type-B receptor 1 (Homo sapiens) (P54762 whole entry): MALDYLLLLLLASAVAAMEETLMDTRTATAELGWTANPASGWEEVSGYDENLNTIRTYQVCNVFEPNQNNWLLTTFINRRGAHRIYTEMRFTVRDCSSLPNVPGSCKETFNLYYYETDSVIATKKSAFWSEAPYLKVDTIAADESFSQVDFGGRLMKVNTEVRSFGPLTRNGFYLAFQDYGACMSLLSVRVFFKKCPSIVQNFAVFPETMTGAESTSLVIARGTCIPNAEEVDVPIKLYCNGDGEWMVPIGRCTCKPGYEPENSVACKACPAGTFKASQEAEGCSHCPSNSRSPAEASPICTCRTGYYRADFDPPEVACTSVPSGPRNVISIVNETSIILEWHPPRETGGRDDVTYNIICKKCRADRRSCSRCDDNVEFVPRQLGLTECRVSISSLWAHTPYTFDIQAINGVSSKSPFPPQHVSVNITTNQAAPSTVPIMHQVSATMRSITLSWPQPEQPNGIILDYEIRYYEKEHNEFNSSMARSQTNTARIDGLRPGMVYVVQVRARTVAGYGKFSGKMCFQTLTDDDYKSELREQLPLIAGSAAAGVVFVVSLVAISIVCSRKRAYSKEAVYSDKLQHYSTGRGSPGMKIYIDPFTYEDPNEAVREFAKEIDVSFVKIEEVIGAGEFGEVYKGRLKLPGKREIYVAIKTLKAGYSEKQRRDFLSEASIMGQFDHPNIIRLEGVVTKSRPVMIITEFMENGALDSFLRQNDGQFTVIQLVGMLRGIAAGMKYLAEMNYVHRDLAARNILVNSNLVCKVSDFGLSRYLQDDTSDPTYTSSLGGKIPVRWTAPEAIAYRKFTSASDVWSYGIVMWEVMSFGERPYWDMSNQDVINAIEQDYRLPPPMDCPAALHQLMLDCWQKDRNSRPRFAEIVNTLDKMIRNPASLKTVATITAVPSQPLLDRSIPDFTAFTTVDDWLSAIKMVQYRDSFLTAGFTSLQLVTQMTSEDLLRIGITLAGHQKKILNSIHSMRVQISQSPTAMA

[45] = biological target: cAMP-dependent protein kinase catalytic subunit PRKX (Homo sapiens) (UniProt P51817); conditions: Compound concentration 1000.0 nM

Chain of MAP kinase-interacting serine/threonine-protein kinase 1 (Homo sapiens) (Q9BUB5 whole entry, looked up): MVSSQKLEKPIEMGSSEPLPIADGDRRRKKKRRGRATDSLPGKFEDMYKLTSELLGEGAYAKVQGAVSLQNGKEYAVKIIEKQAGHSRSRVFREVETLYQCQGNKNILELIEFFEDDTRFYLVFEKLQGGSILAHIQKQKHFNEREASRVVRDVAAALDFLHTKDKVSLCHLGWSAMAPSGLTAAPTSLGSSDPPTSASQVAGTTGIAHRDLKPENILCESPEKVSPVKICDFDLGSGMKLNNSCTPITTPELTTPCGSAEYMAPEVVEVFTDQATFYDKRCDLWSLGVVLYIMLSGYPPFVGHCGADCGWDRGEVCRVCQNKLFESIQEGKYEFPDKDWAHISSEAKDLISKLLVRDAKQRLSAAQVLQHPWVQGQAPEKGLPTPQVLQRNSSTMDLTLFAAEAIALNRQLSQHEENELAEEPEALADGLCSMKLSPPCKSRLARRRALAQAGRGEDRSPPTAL

N#Cc1ccc(Nc2ccc3[nH]c(=O)[nH]c3c2)c(Cl)c1
inactive: residual activity [1] 100% | residual activity [2] 89% | residual activity [3] 95% | residual activity [4] 100% | residual activity [5] 97% | residual activity [6] 93% | residual activity [7] 100% | residual activity [8] 100% | residual activity [9] 100% | residual activity [10] 100% | residual activity [11] 100% | residual activity [12] 100% | residual activity [13] 67% | residual activity [14] 100% | residual activity [15] 100% | residual activity [16] 100% | residual activity [17] 100% | residual activity [18] 65% | residual activity [19] 97% | residual activity [20] 100% | residual activity [21] 56% | residual activity [22] 97% | residual activity [23] 100% | residual activity [24] 89% | residual activity [25] 93% | residual activity [26] 96% | residual activity [27] 100% | residual activity [28] 100% | residual activity [29] 100% | residual activity [30] 87% | residual activity [31] 100% | residual activity [32] 94% | residual activity [33] 100% | residual activity [34] 93% | inhibition [35] 3.81% | residual activity [36] 97% | inhibition [37] 4.16% | residual activity [38] 100% | inhibition [39] 14.7% | residual activity [40] 82% | residual activity [41] 100% | residual activity [42] 96% | residual activity [43] 81% | residual activity [44] 93% | residual activity [45] 100%

O=C1CCc2cc(Nc3cc(OC4CCOCC4)c([N+](=O)[O-])cc3Cl)ccc2N1
inactive: residual activity [1] 100% | residual activity [2] 89% | residual activity [3] 85% | residual activity [4] 100% | residual activity [5] 98% | residual activity [6] 73% | residual activity [7] 100% | residual activity [8] 91% | residual activity [9] 100% | residual activity [10] 98% | residual activity [11] 100% | residual activity [12] 96% | residual activity [13] 100% | residual activity [14] 100% | residual activity [15] 100% | residual activity [16] 88% | residual activity [17] 70% | residual activity [18] 80% | residual activity [19] 100% | residual activity [20] 100% | residual activity [21] 87% | residual activity [22] 96% | residual activity [23] 100% | residual activity [24] 64% | residual activity [25] 100% | residual activity [26] 87% | residual activity [27] 100% | residual activity [28] 100% | residual activity [29] 100% | residual activity [30] 99% | residual activity [31] 100% | residual activity [32] 91% | residual activity [33] 75% | residual activity [34] 77% | inhibition [35] 35.4% | residual activity [36] 99% | inhibition [37] -0.13% | residual activity [38] 96% | inhibition [39] 17% | residual activity [40] 87% | residual activity [41] 100% | residual activity [42] 96% | residual activity [43] 92% | residual activity [44] 83% | residual activity [45] 100%
